Measured values reported in US8404869B2, “Phenanthrenequinone-based compound and pharmaceutical composition containing the same for the treatment or prevention of disease involving metabolic syndrome” (Mazence Inc., priority 2007, dated 2013).

Assays:
AMPK = test: Determination of AMPK activation in differentiated C2C12 myoblast cells (SAMS peptide, [γ-32P]ATP); type: cell-based; conditions: C2C12 myoblast cells treated at 5 μg/ml; DMSO (0.5%) control = 1
Experimental: Myoblast cells, C2C12, were cultured in DMEM containing 10% bovine calf serum. When a cell density reached a range of about 85% to 90%, the culture medium was replaced with a medium containing 1% bovine calf serum to induce differentiation of cells. The thus-differentiated myoblast cells were treated with samples synthesized in Examples 1 through 16 at a concentration of 5 μg/ml, and compared with a control group. Enzymatic activity of AMPK was determined as follows. Firstly, C2C12 cells were lysed to obtain protein extracts and then ammonium sulfate was added to a final concentration of 30%, thereby precipitating proteins. Protein precipitates were dissolved in a buffer (62.5 mM Hepes, pH 7.2, 62.5 mM NaCl, 62.5 mM NaF, 1.25 mM Na pyrophosphate, 1.25 mM EDTA, 1 mM DTT, 0.1 mM PMSF, and 200 μM AMP). Thereafter, 200 μM SAMS peptide (HMRSAMSGLHLVKRR: the underlined serine residue is a phosphorylation site, as an AMPK phosphorylation site of acetyl-CoA carboxylase) and [γ-32P]ATP were added thereto and reactants were reacted for 10 minutes at 30° C. This was followed by spotting of the resulting reaction solution on p81 phosphocellulose paper. The p81 paper was washed with a 3% phosphoric acid solution and radioactivity thereof was measured. For each reaction condition, reactions involving no SAMS peptide were also conducted and basic values were subtracted from the thus-observed values.

[1] = system: C57BL/6JL Lep ob/Lep ob mice; test: Weight loss effects in obese mice (ob/ob); type: in vivo; conditions: mixed-feed of 0.4% for 18 days; for Increase in BW / change in vivo at 0.4 % in feed: (Final BW−Initial BW)/Initial BW×100; for Final BW: ob/ob male mice; for change in vivo at 0.4 % in feed: Mus musculus, po, 432 h, read-out: Increase in BW
Experimental: (§1) 10-week-old C57BL/6JL Lep ob/Lep ob male mice having obesity characteristics and predisposition were purchased from Daehan Biolink Co., Ltd. (Chungchongbuk-do, Korea). Animals were raised in a breeding room maintained at a temperature of 23° C., 55% humidity, illumination of 300 to 500 lux, a 12-h light/dark (L/D) cycle, and ventilation of 10 to 18 times/hr. Animals were fed ad libitum pellets of Purina Rodent Laboratory Chow 5001 (purchased from Purina Mills Inc., St. Louis, Mo., USA) as a solid feed for experimental animals and tap water as drinking water. Mice were allowed to acclimate to new environment of the breeding room for two weeks and were then administered some pyrano-3,4-phenanthrenequinone or furano-3,4-naphthoquinone derivatives synthesized according to the present invention at mixed-feed of 0.4% for 18 days. Observation was made on changes in body weight, blood glucose and dietary intake, with respect to a time course of administration. After administration was complete, confirm changes in glucose, lipid and enzyme levels in blood.
(§2) For comparison, the same experiments were carried out for the subject (negative control group) to which the active ingredient was not administered, and subject (positive control group) to which Cryptotanshinone, extracted from Danshen by a method as set forth in Example 1 of the Korean Patent Application No. 2004-0116339 by the present applicant, was administered by the above-mentioned condition.
Herein, ‘Increase in BW’ is calculated as the following; Increase in BW=(Final BW−Initial BW)/Initial BW×100

[2] = system: C57BL/6JL Lep ob/Lep ob mice; test: Blood biomarkers (lipid, glucose, enzyme levels) in ob/ob mice; type: in vivo; set-up: unit not given here; conditions: after mixed-feed of 0.4% for 18 days
Experimental: as §1, §2

| Structure (SMILES) | AMPK fold (AMPK) [fold] | Final BW [1] [g] | change in vivo at 0.4 % in feed [1] [%] | GOT [2] | GPT [2] | HDL chol [2] | LDL chol [2] | T. chol [2] | glucose [2] | triglyceride [2] | further results |
| --- | --- | --- | --- | --- | --- | --- | --- | --- | --- | --- | --- |
| CC1CC2=C(O1)c1ccc3c(c1C(=O)C2=O)CCCC3(C)C (single isomer, unassigned) [Example 2, 2,6,6-Trimethyl-1,2,6,7,8,9-hexahydro-phenanthro[1,2-b]furan-10,11-dione] | 2.4 | 44.4 ± 3.4 |  |  |  |  |  |  |  |  | Increase in BW [1]: −15.9%; GOT ([2]; listed as Ex. 2): 378.8; GPT ([2]; listed as Ex. 2): 215.0; HDL chol ([2]; listed as Ex. 2): 38.8; LDL chol ([2]; listed as Ex. 2): 21.67; T. chol ([2]; listed as Ex. 2): 125.0; glucose ([2]; listed as Ex. 2): 125; triglyceride ([2]; listed as Ex. 2): 58.8 |
| CC1CC2=C(O1)c1ccc3c(c1C(=O)C2=O)CCCC3(C)C (single isomer, unassigned) [Example 3, 2,6,6-Trimethyl-1,2,6,7,8,9-hexahydro-phenanthro[1,2-b]furan-10,11-dione] | 2.2 | 46.1 ± 2.1 |  |  |  |  |  |  |  |  | Increase in BW [1]: −11.9%; GOT ([2]; listed as Ex. 3): 247.5; GPT ([2]; listed as Ex. 3): 160.0; HDL chol ([2]; listed as Ex. 3): 42.5; LDL chol ([2]; listed as Ex. 3): 12.00; T. chol ([2]; listed as Ex. 3): 134.0; glucose ([2]; listed as Ex. 3): 132; triglyceride ([2]; listed as Ex. 3): 61.7 |
| CC1CC2=C(O1)c1ccc3c(c1C(=O)C2=O)CCCC3 (stereo not shown) [Example 1, 2-Methyl-1,2,6,7,8,9-hexahydro-phenanthro[1,2-b]furan-10,11-dione] | 2.2 | 45.3 ± 1.7 | -14.2 | 233.3 | 118.8 | 42.5 | 13.00 | 141.7 | 120 | 81.7 |  |
| CC1OC2=C(C(=O)C(=O)c3c2ccc2c3CCCC2(C)C)C1(C)C (stereo not shown) [Example 4, 1,1,2,6,6-Pentamethyl-1,2,6,7,8,9-hexahydro-phenanthro[1,2-b]furan-10,11-dione] | 2.2 | 48.6 ± 3.3 | -7.1 | 476.7 | 285.0 | 45.0 | 10.00 | 127.5 | 128 | 76.7 |  |
| CC1C2=C(OC1(C)C)c1ccc3c(c1C(=O)C2=O)CCCC3(C)C (stereo not shown) [Example 5, 1,2,2,6,6-Pentamethyl-1,2,6,7,8,9-hexahydro-phenanthro[1,2-b]furan-10,11-dione] | 2.3 | 47.9 ± 3.1 | -7.8 | 377.5 | 251.0 | 45.5 | 14.05 | 126.5 | 141 | 77.0 |  |
| CC1(C)CCC2=C(O1)c1ccc3c(c1C(=O)C2=O)CCCC3 [Example 6, 3,3-Dimethyl-2,3,7,8,9,10-hexahydro-1H-4-oxa-chrysene-11,12-dione] | 2.2 | 49.0 ± 2.7 | -6.3 | 392.5 | 250.0 | 49.0 | 13.00 | 129.5 | 145 | 69.5 |  |
| CC1CC2=C(O1)c1ccc3ccccc3c1C(=O)C2=O (stereo not shown) [Example 7, 2-Methyl-1,2-dihydro-phenanthro[1,2-b]furan-10,11-dione] | 2.2 | 49.6 ± 2.6 | -3.9 | 286.7 | 143.8 | 58.8 | 14.00 | 148.8 | 156 | 70.0 |  |
| CC1OC2=C(C(=O)C(=O)c3c2ccc2ccccc32)C1(C)C (stereo not shown) [Example 8, 1,1,2-Trimethyl-1,2-dihydro-phenanthro[1,2-b]furan-10,11-dione] | 2.5 | 41.1 ± 1.3 | -20.3 | 376.5 | 241.0 | 48.0 | 13.75 | 132.5 | 118 | 79.5 |  |
| Cc1cc2c(c3ccccc13)C(=O)C(=O)C1=C2OC(C)C1 (stereo not shown) [Example 9, 2,5-Dimethyl-1,2-dihydro-phenanthro[1,2-b]furan-10,11-dione] | 2.3 | 48.9 ± 1.7 | -6 | 355.0 | 77.0 | 48.0 | 11.00 | 135.0 | 136 | 72.0 |  |
| Cc1cc2c(c3ccccc13)C(=O)C(=O)C1=C2OC(C)C1(C)C (stereo not shown) [Example 10, 1,1,2,5-Tetramethyl-1,2-dihydro-phenanthro[1,2-b]furan-10,11-dione] | 2.4 | 41.1 ± 1.3 | -20.3 | 283.3 | 66.7 | 45.0 | 5.00 | 115.0 | 121 | 88.3 |  |
| CC1CC2=C(O1)c1ccc3ccc(C(C)(C)C)cc3c1C(=O)C2=O (stereo not shown) [Example 11, 8-tert-Butyl-2-methyl-1,2-dihydro-phenanthro[1,2-b]furan-10,11-dione] | 2.3 | 52.2 ± 1.4 | -1.2 | 347.5 | 197.5 | 47.5 | 9.95 | 134.0 | 175 | 82.0 |  |
| CC1OC2=C(C(=O)C(=O)c3c2ccc2ccc(C(C)(C)C)cc32)C1(C)C (stereo not shown) [Example 12, 8-tert-Butyl-1,1,2-trimethyl-1,2-dihydro-phenanthro[1,2-b]furan-10,11-dione] | 2.2 | 48.3 ± 2.3 | -6.9 | 355.0 | 77.0 | 48.0 | 11.00 | 135.0 | 153 | 69.0 |  |
| CC1CC2=C(O1)c1ccc3ccc(Cl)cc3c1C(=O)C2=O (stereo not shown) [Example 13, 8-Chloro-2-methyl-1,2-dihydro-phenanthro[1,2-b]furan-10,11-dione] | 2.3 | 48.8 ± 2.5 | -6.3 | 373.5 | 184.0 | 44.0 | 12.00 | 125.5 | 138 | 85.3 |  |
| Cc1ccc2ccc3c(c2c1)C(=O)C(=O)C1=C3OC(C)C1 (stereo not shown) [Example 14, 2,8-Dimethyl-1,2-dihydro-phenanthro[1,2-b]furan-10,11-dione] | 2.5 | 48.7 ± 1.9 | -7 | 283.3 | 66.7 | 45.0 | 5.00 | 115.0 | 146 | 88.3 |  |
| C[C@H]1COC2=C1C(=O)C(=O)c1c2ccc2c1CCCC2(C)C [Positive control group, Cryptotanshinone, reference compound] |  | 51.6 ± 1.7 | -1.2 | 255.0 | 149.0 | 48.0 | 11.0 | 135.0 |  | 100.9 |  |
